Values quoted from earlier work, collected in patent US20170333338A1, “SUSTAINED AND REVERSIBLE ORAL DRUG DELIVERY SYSTEMS” (The Children's Medical Center Corporation, priority 2014, published 2017).

highest pKa of the phosphate groups: 10.18
Structure (SMILES): NCCC(O)(P(=O)(O)O)P(=O)(O)O [Pamidronate]
